Data on one molecule can be found in patent US9616006B2, “Methods and compositions for treating dermatological diseases and conditions” (priority 2007, dated 2017).

The test system of experiment [1] is TNF-α. Nature of the experiment: UV-induced TNF-α production in keratinocytes (ELISA). Format: cell-based, human. Particulars: Homo sapiens, Keratinocyte, read-out: Percent Inhibition of TNF-α. On the procedure: (§1) In one study, various concentrations of DHE were added to culture medium and these media were placed on human fibroblast cell cultures (results shown in FIG. 1). Cells were either not induced or induced with UVB radiation to stimulate cytokine/PGE-2 production. At 24 hours after treatment, the cell culture medium was removed and assayed by ELISA methods for the expression of PGE-2, various cytokines and chemokines.
(§2) When similar experiments were carried out with human keratinocytes, DHE was again found to markedly suppress the UVR induction of PGE-2, with a concentration of 50 uM inhibiting the production of PGE-2 by over 60% (results shown in FIG. 2). […] Further, since PGE-2 is known to be a principal factor in the development of actinic keratosis and skin cancer, DHE can also be used in treating these conditions.
(§3) DHE and IE both have inhibitory effects on production of the inflammatory mediators in keratinocytes.

Experiment [2] concerns IL-12. Nature of the experiment: TNF-α-induced IL-12 production in monocytes. Particulars: Monocyte, read-out: Percent Inhibition of IL-12. Format: cell-based. The text has this:
(§4) DHE and IE both have inhibitory effects on the production of the inflammatory mediators in monocytes.

Experiment [3] relates to PGE2. The experiment is described as follows: UV-induced PGE2 production in keratinocytes (ELISA). The class given is cell-based, human. Particulars: Homo sapiens, Keratinocyte; Keratinocytes (UV); 100 uM; read-out: Percent Inhibition of PGE2. The procedure: as §1, §2, §3
In experiment [4] the test system is IL-12. Nature of the experiment: LPS-induced IL-12 production in monocytes. The class given is cell-based. Particulars: Monocyte, read-out: Percent Inhibition of IL-12.
Excerpt: as §4

Experiment [5] has as its system MCP-1. The experiment is described as follows: TNF-α-induced MCP-1 production in monocytes. Format: cell-based. Particulars: Monocyte, read-out: Percent Inhibition of MCP-1.
Excerpt: as §4

In experiment [6] the test system is tyrosinase. The experiment is described as follows: DOPA oxidase assay of cell extracts from treated human melanocytes. Particulars: extracts of human melanocytes treated for 9 days. The class given is cell-based. On the procedure: Cell lysates were prepared from human melanocytes. The amount of tyrosinase in these cell lysates was determined by DOPA oxidase assay.
FIGS. 14-17 show the skin-lightening effects of topically-applied formulations of isoeugenol and its ester isoeugenol acetate (a.k.a. isoeugenyl acetate) in the treatment of hyperpigmented areas in the skin, wherein a reduction of melanin pigment in the skin is caused by the topical application of the formulations. In addition to blocking a post-tyrosinase step in melanin synthesis, IE and IE acetate can inhibit the expression of the tyrosinase protein in human melanocytes. […] If the cell extracts contain tyrosinase when an aliquot of extract is placed in a tube containing L-DOPA (a tyrosinase substrate) in buffer, the enzyme will convert the DOPA to melanin. The melanin will appear brownish-black in the assay tube. If IE or IE-acetate has inhibited tyrosinase synthesis in melanocytes, then the extracts from these cells will contain no enzyme and will not be able to produce melanin from DOPA in the assay tube. […] In this assay, cell extracts from human melanocytes either left untreated or treated with 200 micromolar of either IE or isoeugenol acetate for 9 days are run on SDS polyacrylamide electrophoresis gels to separate tyrosinase from other proteins. The tyrosinase in the gel is then blotted to a membrane and the tyrosinase detected by staining with a specific anti-tyrosinase antibody. The antibody-bound tyrosinase is then visualized by chemiluminescence.

Experiment [7] has as its system IL-8. Nature of the experiment: IL-1-induced IL-8 production in fibroblasts (ELISA). Particulars: Homo sapiens, Fibroblast, Fibroblasts (IL-1), read-out: Percent Inhibition of IL-8. The class given is cell-based, human. A general note: An ELISA detects its analyte on a solid surface through an enzyme-linked reagent.
The subject of experiment [8] is elastin mRNA. The experiment is described as follows: Elastin mRNA in human dermal fibroblasts by RT-PCR. The class given is cell-based. Particulars: 72 hours. An excerpt:
The presently claimed and disclosed inventive concept(s) further contemplates use of various DHE, IE and EV compositions and salts, esters, ethers, and derivatives thereof to mitigate the effects of aging on the skin. For all aging studies, normal human fibroblast cell cultures were used. These cells normally produce collagen, elastin and hyaluronic acid. As the skin ages, the fibroblasts in the dermis lose their ability to produce these three key components of skin, and the skin consequently loses elasticity, thickness and smooth texture. […] There are about 13 of these enzymes, collectively referred to as MMPs (matrix metalloproteinases). One of the principal MMPs, MMP-1, is responsible for collagen degradation. […] The image is from an electrophoresis gel of DNA amplified by PCR from fibroblast mRNA. This gel was analyzed and the density of each band quantified by image analysis software.

In experiment [9] the test system is IL-6. Nature of the experiment: TPA-induced IL-6 production in keratinocytes (ELISA). Format: cell-based, human. Particulars: Homo sapiens, Keratinocyte, read-out: Percent Inhibition of IL-6.
The test system of experiment [10] is TNF-α. The experiment is described as follows: TPA-induced TNF-α production in keratinocytes (ELISA). Format: cell-based, human. Particulars: Homo sapiens, Keratinocyte; Keratinocytes (TPA); 100 uM; read-out: Percent Inhibition of TNF-α. On the procedure:
as §1, §2
Inflammatory mediators produced in the skin contribute to the development and propagation of such diseases as rosacea, psoriasis and atopic dermatitis. While many inflammatory mediators are involved in these diseases, TNF-α is known to be a major cytokine involved in psoriasis. For atopic dermatitis, TNF-α, IL-8, and MCP-1 are important mediators of inflammation in these diseases. DHE is effective in suppressing the TPA-induced (TPA is tetradecanolyl phorbol ester) production of TNF-α by approximately 50% at a 100 micromolar concentration (results shown in FIG. 3).
as §3

Experiment [11] concerns PGE2. Nature of the experiment: TPA-induced PGE2 production in keratinocytes (ELISA). Format: cell-based, human. Particulars: Homo sapiens, Keratinocyte, read-out: Percent Inhibition of PGE2.
Experiment [12] concerns IL-6. The experiment is described as follows: IL-1-induced IL-6 production in fibroblasts (ELISA). Format: cell-based, human. Particulars: Homo sapiens, Fibroblast, Fibroblasts (IL-1), read-out: Percent Inhibition of IL-6. The procedure:
In one study, various concentrations of DHE were added to culture medium and these media were placed on human fibroblast cell cultures (results shown in FIG. 1). […] At 24 hours after treatment, the cell culture medium was removed and assayed by ELISA methods for the expression of PGE-2, various cytokines and chemokines.
(§5) DHE and IE both have inhibitory effects on the production of the inflammatory mediators in fibroblasts.

The subject of experiment [13] is IL-8. Nature of the experiment: UV-induced IL-8 production in fibroblasts (ELISA). Particulars: Homo sapiens, Fibroblast, read-out: Percent Inhibition of IL-8. Format: cell-based, human. On the procedure: as §1, §5

Each structure is given as a SMILES string.

One may read the inhibition as the relative decrease from the control value, in per cent.

Regarding `CC=Cc1ccc(O)c(OC)c1` [IE, isoeugenol], the inhibition at 100 µM was 60% in experiment [1]; 100% in experiment [2]; 76% in experiment [3]; 80% in experiment [4]; 82% in [5]; 98% in [7]. Besides, the inhibition at 100 µM in experiment [9] worked out at 94%; in experiment [10], 71%; in experiment [11], 82%; in experiment [12] it was 53%; in experiment [13], 2%. Besides, the “tyrosinase activity / melanin made from L-DOPA by cell extracts” value in experiment [6] is “very little melanin was made”; in experiment [6] (listed as TH-212), “absence of tyrosinase activity”. For the same molecule, in [8], the “elastin levels (elastin mRNA)” value is given as “increase”.
